The test system of assay [1] is APAE001 (P. aeruginosa ATCC27853). Description: MIC assay, CLSI broth microdilution. Format: cell-based. The following applies: Pseudomonas aeruginosa, Mueller Hinton Broth, 35 C, 20 hours. As to the method:
(§1) Minimum inhibitory concentrations (MIC) were determined by reference Clinical and Laboratory Standards Institute (CLSI) broth microdilution methods per M7-A7 [2006]. Quality control ranges utilizing E. coli ATCC 25922, P. aeruginosa ATCC 27853 and S. aureus ATCC 29213, and interpretive criteria for comparator agents were as published in CLSI M100-S17 [2007]. Briefly, serial two-fold dilutions of the test compounds were prepared at 2× concentration in Mueller Hinton Broth. The compound dilutions were mixed in 96-well assay plates in a 1:1 ratio with bacterial inoculum. The inoculum was prepared by suspension of a colony from an agar plate that was prepared the previous day. Bacteria were suspended in sterile saline and added to each assay plate to obtain a final concentration of 5×10^5 CFU/mL. The plates were incubated at 35 C for 20 hours in ambient air.
For orientation: Broth dilution looks for growth in wells or tubes with falling amounts of substance.

Assay [2] deals with AECO001 (E. coli ATCC25922). The assay can be described thus: MIC assay, CLSI broth microdilution. The following applies: Escherichia coli, Mueller Hinton Broth, 35 C, 20 hours. The format is cell-based. As to the method:
as §1

The structures appear in SMILES notation. Converted amounts (≈) assume the structure as drawn.

MIC data for four molecules are collected here from US20120283209A1, “ANTIBACTERIAL AMINOGLYCOSIDE ANALOGS” (Achaogen, Inc., priority 2009, published 2012).

For the molecule `NC[C@@H](O)[C@H](O)C(=O)N[C@@H]1C[C@H](N)[C@@H](O[C@H]2O[C@H](CN)[C@@H](O)[C@@H](O)[C@H]2N)[C@H](O[C@@H]2O[C@H](CO)[C@@H](O[C@H]3O[C@@H](CN)[C@@H](O)[C@H](O)[C@H]3N)[C@H]2O)[C@H]1O` [1/7], the MIC is no more than 1 µg/mL in assay [1] and 1 to 16 µg/mL (≈ 1.37 to 21.9 µM) in assay [2].

Turning to `NC[C@@H]1O[C@H](O[C@H]2[C@@H](O)[C@H](O[C@@H]3[C@@H](O)[C@H](NC(=O)[C@@H](O)[C@@H](O)CN)C[C@H](N)[C@H]3O[C@H]3O[C@H](CN)[C@@H](O)[C@@H](O)[C@H]3N)O[C@@H]2CO)[C@H](N)[C@@H](O)[C@@H]1O` [2/3], the MIC was no more than 1 µg/mL in assay [1] and 1 to 16 µg/mL (≈ 1.37 to 21.9 µM) in assay [2].

Take `NC[C@@H]1O[C@H](O[C@H]2[C@@H](O)[C@H](O[C@@H]3[C@@H](O)[C@H](NC(=O)[C@@H](O)C(F)(F)CN)C[C@H](N)[C@H]3O[C@H]3O[C@H](CN)[C@@H](O)[C@@H](O)[C@H]3N)O[C@@H]2CO)[C@H](N)[C@@H](O)[C@@H]1O` [4/3]: the MIC in assay [1] was no more than 1 µg/mL; in assay [2], 1 to 16 µg/mL (≈ 1.33 to 21.3 µM).

Take `NC[C@@H](F)[C@H](O)C(=O)N[C@@H]1C[C@H](N)[C@@H](O[C@H]2O[C@H](CN)[C@@H](O)[C@@H](O)[C@H]2N)[C@H](O[C@@H]2O[C@H](CO)[C@@H](O[C@H]3O[C@@H](CN)[C@@H](O)[C@H](O)[C@H]3N)[C@H]2O)[C@H]1O` [3/3]: the MIC in assay [1] was no more than 1 µg/mL; in assay [2], 1 to 16 µg/mL (≈ 1.36 to 21.8 µM).

As a reminder, the MIC is the lowest concentration that inhibits growth of the organism. Low values mean inhibition by little substance, high ones a need for much substance.
